Patent publication US8821568B2, “Implant modified with non-hydroxylated vitamin D precursors” (Numat Biomedical S.L., priority 2008, dated 2014)

Assays:
[1] = HPLC quantification of 7-DHC and vitamin D3 on coated substrates before and after UV irradiation; assay type: physicochemical; conditions: for m7-DHC (%): 100* m7-DHC/m7-DHC^0; for ηD3 (Vit D3 product yield): moles D3 after vs moles 7-DHC before irradiation
Experimental: Substrates (polystyrene, 96 well plate; or titanium, polished titanium disks, 6.2 mm diameter, 2 mm height, inserted in a 96 well plate) were covered with 0.2 nmol of 7-DHC and Vitamin E (7-DHC: VitE=20:1, m:m) by dropping 10 μl of a 7-DHC/VitE solution in absolute ethanol. After leaving the solvent to evaporate for 15 min, samples were UV irradiated for 15 min at 302 nm. The amounts of 7-DHC and D3 present in the surfaces were quantified by HPLC. Results were compared with substrates without Vit E and with non-irradiated surfaces. Pure ethanol was used as control for all groups. Sunlight exposure was avoided for all surfaces.
The coating of each surface was extracted by adding 100 μl of ‘methanol/acetonitrile/tetrahydrofurane/water’ (67:16:2:15, v:v) to each well and shaking the plate for 2 min at 20 rpm. The content of three replicate wells was mixed to give a sample of ≈300 μl. An aliquot of 100 μl of the sample was injected in the HPLC system. Two replicate samples were prepared and analyzed for each group.
The analysis were carried out using a Waters liquid chromatographic system (Milford, Mass., USA), equipped with a refrigerated automatic injector WISP700 and a 600 pump system, connected to a Waters 996 photodiode array (PDA) detector. The software Empower was used for instrument control and data analysis. Detection was carried out at 282 nm.
A Nova Pak C18 column (Waters) was used to separate sample components before detection. The column temperature was set to 30° C. Two solvents, A: ‘methanol/acetonitrile/tetrahydrofurane/water (67:16:2:15, v:v), and B: ‘methanol/acetonitrile/tetrahydrofurane’ (75:20:5, v:v) were used in gradient elution mode as the mobile phase. Solvents A and B were vacuum-filtered through a Nylon membrane (0.45 μm pore diameter) and degassed before use. The mobile phase flow rate was 1 ml·min^−1. The binary gradient used was as follows: from 5% B to 90% B in three minutes, held for 9.5 min at 90% B, from 90% B to 5% B in one minute and equilibrated between injections at the initial conditions for 5 min (total run time=15 min+5 min equilibration between injections).
Quantification was performed by integration of the peak area of the corresponding analyte and interpolation of the peak area in 7-DHC or Vit D3 standard curves.

MC3T3-E1 cells = experiment: Real-time RT-PCR of hydroxylase enzymes (CYP27A1, CYP27B1), coated titanium implants; assay type: cell-based, mouse; conditions: Ti implants, 48 h
Experimental: To test the effect of the surface modification, 96-well plates were used. Ti disks were placed into the wells and treatments and UV-activation were performed over there. Cells grown onto untreated polystyrene tissue culture plastic (TCP) were added as a control for all the experiments. Cells were seeded at a density of 30,000 cells/cm^2 and they were maintained in α-MEM supplemented with 10% FCS and antibiotics. Culture media was collected after 48 hours, to test cytotoxicity and the production of the hydroxylated form of vitamin D, 25-D3. […]
RNA was isolated from cells using a monophasic solution of phenol and guanidine thiocyanate (Trizol, Roche Diagnostics, Mannheim, Germany) according to the manufacturer's protocol. RNA was quantified at 260 nm using a Nanodrop spectrophotometer (NanoDrop Technologies, Wilmington, Del., USA). […]
To allow relative quantification after PCR, real-time efficiencies were calculated from the given slopes in the LightCycler 480 software (Roche Diagnostics, Mannheim, Germany) using serial dilutions. Relative quantification after PCR was calculated by normalizing target gene concentration in each sample by the concentration mean of the two reference genes in given sample using the Advanced relative quantification method provided by the LightCycler 480 analysis software.

[2] = Polystyrene, irradiated, UV 302 nm 15 min
[3] = Titanium, irradiated, UV 302 nm 15 min

Structure (SMILES): CC(C)CCC[C@@H](C)[C@H]1CC[C@H]2C3=CC=C4C[C@@H](O)CC[C@]4(C)[C@H]3CC[C@]12C [7-DHC, 7-dehydrocholesterol]
- m7-DHC [1, 2]: 29.2 ± 2.0 ng/well
- mD3 [1, 2]: 11.8 ± 0.4 ng/well
- m7-DHC (%) [1, 2]: 29%
- ηD3 (Vit D3 product yield) [1, 2]: 13.1 ± 0.4%
- m7-DHC ([1]; Polystyrene, non irradiated): 90.1 ± 2.9 ng/well
- m7-DHC (%) ([1]; Polystyrene, non irradiated): 88%
- m7-DHC [1, 3]: 42.1 ± 3.4 ng/well
- mD3 [1, 3]: 16.4 ± 0.7 ng/well
- m7-DHC (%) [1, 3]: 39%
- ηD3 (Vit D3 product yield) [1, 3]: 16.4 ± 0.7%
- m7-DHC ([1]; Titanium, non irradiated): 99.9 ± 3.0 ng/well
- m7-DHC (%) ([1]; Titanium, non irradiated): 92%
- CYP27B1 gene expression (MC3T3-E1 cells; increasing UV exposure time, significant vs UV-untreated at 15 and 30 min): upregulated
- CYP27A1 mRNA gene expression (MC3T3-E1 cells; with UV irradiation time, maximum after 15 min): trend to increase
